The values that follow come from US9095561B2, “Methods for affecting homology-directed DNA double stranded break repair” (University of South Carolina, priority 2010, dated 2015).

Each structure is given as a SMILES string. Where a SMILES comes first, the peptide text is derived from it. The star is where a group is joined. Cbz = O=C(OCc1ccccc1)*

For one experiment, the system named is HA-RAD51D. The experiment in a line: HA-RAD51D protein levels after CHX with or without proteasome inhibitor MG132. The class given is cell-based, mouse. Further details: HA-RAD51D protein levels elevated: dose or concentration left out as unconfirmed. The protocol:
FIG. 18 illustrates analysis of MEFs that were treated with CHX ([…]) or CHX in combination with MG132 ([…]). Cell lysates were prepared at the 4 hour time point, and HA-RAD51D band intensity was calculated as described herein.
To determine whether decreased HA-RAD51D half-life can be attributed to proteasome degradation, HA-RAD51D protein levels were assessed following treatment with the proteasome inhibitor MG132. As anticipated, HA-RAD51D protein levels were elevated up to 42% in MG132 treated samples (FIG. 18, lanes 1-4) indicating RAD51D protein levels are in part regulated by the proteasome.

For a further experiment, the system named is RAD51 foci. The experiment in a line: RAD51 foci formation by immunofluorescence in MEFs. The class given is cell-based, mouse. The conditions noted are these: MMC 200 ng/mL, 16 h exposure, RNF138 proficient MEFs; untreated control approximately 21 percent; p<0.01. The procedure:
The presence of RAD51 foci was examined in MEFs subjected to either 200 ng/mL Mitomycin C (MMC) treatment or with no treatment. In addition, both deficient RNF138 cells and proficient RNF138 cells were examined.
For analysis of RAD51 foci formation, 10,000 cells were seeded onto glass coverslips for transfection with Rnf138 siRNA. Twenty-four hr following siRNA transfection, cells were challenged with MMC (200 ng/mL) for 16 hr. Immunofluoresence detection of RAD51 foci was carried out as is generally known I the art (see, e.g., Smiraldo et al., 2005). Cells containing five or more distinct foci were scored positive. For each condition, a minimum of 250 cells from at least three independent experiments was analyzed (n≧750).
The presence of RAD51 foci monitored by immunofluorescence is illustrated in FIGS. 12A-D. RAD51 foci indicates DNA damaged sites undergoing HR repair. MMC treatment (200 ng/mL) increased the percentage of cells containing 5 or more distinct RAD51 foci from approximately 21 percent for untreated control cells (FIG. 12B) to 51 percent (FIG. 12D) following a 16 h exposure (p<0.01). […] In addition, RAD51 foci formation was less in untreated RNF138 deficient (FIG. 12A) versus RNF138 proficient (FIG. 12B) MEFs. Although, a notable increase in RAD51 foci is still detected upon MMC treatment (FIG. 13).

Consider `CC(C)C[C@@H](C=O)NC(=O)[C@H](CC(C)C)NC(=O)[C@H](CC(C)C)NC(=O)OCc1ccccc1` [MG132] (Cbz-Leu-Leu-Leu-aldehyde), for which the “HA-RAD51D protein stability following knockdown of RNF138 expression” value in the experiment with HA-RAD51D (CHX plus MG132, 4 hour time point, RNF138 knockdown MEFs) is listed as “failed to increase”. For the same molecule, in the experiment on HA-RAD51D (CHX, 4 hour time point, MEFs), the “HA-RAD51D protein levels elevated” value was “up to 42%”.

Turning to `CO[C@@]12[C@H](COC(N)=O)C3=C(C(=O)C(C)=C(N)C3=O)N1C[C@@H]1N[C@@H]12` [MMC, Mitomycin C], the “percentage of cells containing 5 or more distinct RAD51 foci” value in the experiment with RAD51 foci is recorded as 51%.
